Patent publication US9056842B2, “Cosmetic use of substituted amino heterocylic carbamoyl analogs and related compounds” (Avon Products, Inc., priority 2011, dated 2015)

Test system: Human dermal fibroblasts
Assay: Stimulation of collagen synthesis, procollagen type I C-peptide (PIP) EIA on conditioned medium
Format: cell-based
Conditions: compound at 0.0005% in DMSO, triplicate, 48-hour incubation; increase in collagen over the DMSO control
Description: Human dermal fibroblasts (Cascade Biologics, Portland, Oreg.) were plated at 10,000 cells/well in 96-well culture plates in supplemented medium (DMEM, 10% Fetal Bovine Serum, 1% Penicillin/Streptomycin and 1% L-Glutamine) overnight in humidified atmosphere of 10% CO2 at 37° C. […] DMSO solution was used a control. Following 48-hour incubation, the plates were removed from the incubator and the medium from each well was collected for the procollagen assay. Collagen production was measured using procollagen type I C-peptide (PIP) EIA kit (Takara Bio, Inc., Japan). […] The ELISA plate was incubated at 37° C. for 3 hours before the wells were washed four times with 400 μl of 1×PBS. At the end of wash, 100 μl of substrate solution (supplied with kit) was added to the wells and incubated at room temperature for 15 minutes. The reaction was stopped by adding 100 μl of 1N sulfuric acid to the wells. The absorbance was measured on a spectrophotometer at 450 nm wavelength. The amount of procollagen peptide in the conditioned medium was calculated from the standard curve. The stimulation of collagen production was shown as an increase in collagen over the control.

In the case of `CCOCCCNC(=O)c1coc(CN(CCCOCC)C(=O)c2cccc(Br)c2)n1` [Compound 1], the “% Collagen Stimulation” value is reported as 68.77%.
In the case of `CCOCCCNC(=O)c1coc(CN(CCCOCC)C(=O)c2ccc(Cl)cc2)n1` [Compound 2], the “% Collagen Stimulation” value is reported as 67.86%.
